Assay results as given in PubChem BioAssay AID1963850 (Molecular Pharmacology Branch, DTP, NCI, 2024).

Test system: 192522-019-R-J2-PDC complex tumor spheroid viability
Experiment: Anticancer human tumor 192522-019-R-J2-PDC patient-derived colon adenocarcinoma cell line growth inhibition [POLQ]
Conditions: for IC50: curve of first compound; for viability, T/C: stronger effect = lower value
Procedure: Multicellular complex tumor spheroid response to Polymerase (POL) inhibitors (novobiocin, ART-558, RP6685) in combination with a variety of drugs and investigational agents in selected tumor cell lines
The POL inhibitors (novobiocin, ART-558, and RP6685) were evaluated both individually and in combination with standard of care and investigational anticancer small molecules within a complex spheroid model of solid tumors. . Complex spheroids include a stromal component modeled by human endothelial cells (HUVEC) and fibroblasts modeled by human mesenchymal stem cells (MSCs). The concentration ranges selected for each drug and investigational agent were based upon clinically achievable concentrations if the clinical Cmax of the agent was known.
Compounds. The drugs and investigational agents: novobiocin (NSC847541), ART-558 (NSC835418), RP-6685 (NSC848927), peposertib (NSC802822), ceralasertib (NSC780249), elimusertib (NSC800525), camonsertib (NSC841442), AZD-1390 (NSC803789), olaparib (NSC753686), talazoparib (NSC767125), rucaparib (NSC756644), sotorasib (NSC818433), MRTX-1133 (NSC836407), SN-38 (NSC673596), topotecan (NSC609699), epotoside (NSC141540), doxorubicin (NSC123127), gemcitabine (NSC613327), 5-fluorouracil (NSC19893), paclitaxel (NSC125973), vemurafenib (NSC761431), MSA-2 (NSC828583), SN-011 (NSC837082), adavosertib (NSC754352), prexasertib (NSC758257), carboplatin (NSC241240) and oxaliplatin (NSC266046), were obtained from the National Cancer Institute (NCI) Developmental Therapeutics Program Chemical Repository (21). The FDA-approved anticancer drug set is available from the Developmental Therapeutics Program at https://dtp.cancer.gov/organization/dscb/obtaining/. […] The stock solutions were prepared in dimethyl sulfoxide (DMSO, Sigma-Aldrich, St. Louis, MO, cat. D2650), except for the platinum compounds which were prepared in saline (Quality Biological, Gaithersburg, MD, cat. 114-055-101), at 800-fold the tested concentration and stored at -70 degrees C prior to their use. All drugs and investigational agents were tested over a range starting from a high concentration at or near the clinical Cmax and decreasing in half-log increments. If the clinical Cmax for an agent had not been determined, the highest concentration tested was 10 microM, except for SN-38, which was tested at a high concentration of 1 microM.
Cell Culture. All cells were maintained in an incubator at 37 degrees C and 5% CO2 with 95% humidity. The PDC lines were cultured according to standard operating procedures established by the NCI PDMR (https://pdmr.cancer.gov). Table 3 of the manuscript, lists the cell lines along with the number of the three cell types plated to form the mct-spheroids and media for tumor cell growth. After thawing, all PDC lines, except 997537-175-T-J1-PDC and 415267-285-R-J2-PDC, were cultured in Matrigel-coated flasks prepared with a working solution of 1X Ham's F-12 nutrient mix, without supplementation (Thermo Fisher Scientific, cat. 11765054), 100 U/mL penicillin-streptomycin (Thermo Fisher Scientific, cat. 15140122), and 2.5% Matrigel (Corning Inc., Corning, NY, cat. 354248) for the first three passages. The two PDC lines 997537-175-T-J1-PDC and 415267-285-R-J2-PDC were cultured on uncoated flasks. The 857933-349-R-J2-PDC line was cultured in 6C/Colon 1B media containing advanced DMEM/F-12 (Thermo Fisher Scientific, cat. 12634028), 10 mM HEPES (Thermo Fisher Scientific, cat. 15630080), 1X GlutaMAX supplement (Thermo Fisher Scientific, cat. 35050061), 0.1 mg/mL primocin (InvivoGen, San Diego, CA, cat. ant-pm-2), 10% defined fetal bovine serum, heat inactivated (HyClone Laboratories Inc., Logan, UT, cat. SH30070.03HI), 50% L-WRN conditioned media (ATCC, cat. CRL-3276), 1.25 mM N-Acetyl-L-cysteine (Sigma-Aldrich, cat. A9165), 10 mM nicotinamide (Sigma-Aldrich, cat. N0636), 1X B-27 supplement (Thermo Fisher Scientific, cat. 17504044), 1X N-2 supplement (Thermo Fisher Scientific, cat. […]
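Note: spheroids exposed to drugs for seven days before reading.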
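Throughout, for viability, T/C: 100% = DMSO vehicle control viability in luminescence.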

**Q.** Which results are given for O=C(c1cc(Cc2n[nH]c(=O)c3ccccc23)ccc1F)N1CCN(C(=O)C2CC2)CC1 + Nc1ccc(C#CCN(C(=O)Cc2ncc(C(F)(F)F)cc2C(F)(F)F)c2ccc(F)cc2)nn1?
**A.** IC50 (second compound 0.0316 µM): > 10 µM; IC50 (second compound 0.1 µM): > 10 µM; IC50 (second compound 0.316 µM): > 10 µM; IC50 (second compound 1 µM): > 10 µM; IC50 (second compound 3.16 µM): > 10 µM; IC50 (second compound 10 µM): > 10 µM; viability, T/C (second compound 0.0316 µM, first compound 0.0316 µM): 105%; viability, T/C (second compound 0.0316 µM, first compound 0.1 µM): 116%; viability, T/C (second compound 0.0316 µM, first compound 0.316 µM): 106%; viability, T/C (second compound 0.0316 µM, first compound 1 µM): 105%; viability, T/C (second compound 0.0316 µM, first compound 3.16 µM): 111%; viability, T/C (second compound 0.0316 µM, first compound 10 µM): 104%; viability, T/C (second compound 0.1 µM, first compound 0.0316 µM): 108%; viability, T/C (second compound 0.1 µM, first compound 0.1 µM): 104%; viability, T/C (second compound 0.1 µM, first compound 0.316 µM): 102%; viability, T/C (second compound 0.1 µM, first compound 1 µM): 102%; viability, T/C (second compound 0.1 µM, first compound 3.16 µM): 110%; viability, T/C (second compound 0.1 µM, first compound 10 µM): 105%; viability, T/C (second compound 0.316 µM, first compound 0.0316 µM): 117%; viability, T/C (second compound 0.316 µM, first compound 0.1 µM): 105%; viability, T/C (second compound 0.316 µM, first compound 0.316 µM): 101%; viability, T/C (second compound 0.316 µM, first compound 1 µM): 112%; viability, T/C (second compound 0.316 µM, first compound 3.16 µM): 111%; viability, T/C (second compound 0.316 µM, first compound 10 µM): 95.6%; viability, T/C (second compound 1 µM, first compound 0.0316 µM): 110%; viability, T/C (second compound 1 µM, first compound 0.1 µM): 102%; viability, T/C (second compound 1 µM, first compound 0.316 µM): 97.3%; viability, T/C (second compound 1 µM, first compound 1 µM): 104%; viability, T/C (second compound 1 µM, first compound 3.16 µM): 114%; viability, T/C (second compound 1 µM, first compound 10 µM): 106%; viability, T/C (second compound 3.16 µM, first compound 0.0316 µM): 116%; viability, T/C (second compound 3.16 µM, first compound 0.1 µM): 104%; viability, T/C (second compound 3.16 µM, first compound 0.316 µM): 103%; viability, T/C (second compound 3.16 µM, first compound 1 µM): 105%; viability, T/C (second compound 3.16 µM, first compound 3.16 µM): 106%; viability, T/C (second compound 3.16 µM, first compound 10 µM): 113%; viability, T/C (second compound 10 µM, first compound 0.0316 µM): 107%; viability, T/C (second compound 10 µM, first compound 0.1 µM): 111%; viability, T/C (second compound 10 µM, first compound 0.316 µM): 110%; viability, T/C (second compound 10 µM, first compound 1 µM): 103%; viability, T/C (second compound 10 µM, first compound 3.16 µM): 110%; viability, T/C (second compound 10 µM, first compound 10 µM): 110%
